Results published in the supplement of paper PMC8671470.
± gives the standard deviation of the averaged measurements.

What was measured:
Details in all cases: 72 h
HL-60 = assay: cell viability (% survival relative to DMSO control); higher = less cytotoxic
Outline: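 Four-parameter log-logistic fits in drc and PharmacoGx supplied area under the curve where it is given. Underlying viability came from CellTiter-Glo, normalised to DMSO and proteasome-inhibitor wells, with the proteasome inhibitor at 10 μM. HL-60 cells in RPMI 1640 plus 10% FBS had been rescreened against the full library at five tenfold concentrations of 1–10,000 nM, in duplicate on 384-well plates, with DMSO or 100 nM of one of three metabolic inhibitors, for 72 h at 37 °C, 5% CO2.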

[1] = tested on: myeloid leukemia patient primary cells Pat.12; assay: cell viability (% survival relative to DMSO control); higher = less cytotoxic
Outline: (§1)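 Seventy compounds were pre-printed on 384-well plates at five tenfold concentrations between 1 and 10,000 nM, in duplicate. Thawed mononuclear cells purified by Ficoll from AML or CML patients were added at 10,000 cells/well in RPMI 1640 with 10% FBS for 72 h. Viability by CellTiter-Glo was normalised to DMSO and 10 μM proteasome-inhibitor wells. Where stated, area under the curve was taken from log-logistic fits made with the drc and PharmacoGx R packages, each fit having four parameters.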

[2] = tested on: myeloid leukemia patient primary cells Pat.9; assay: as above
Outline: as §1

[3] = tested on: myeloid leukemia patient primary cells Pat.15; assay: as above
Outline: as §1

[4] = tested on: myeloid leukemia patient primary cells Pat.4; assay: as above
Outline: as §1

[5] = tested on: myeloid leukemia patient primary cells Pat.8; assay: as above
Outline: as §1

[6] = tested on: myeloid leukemia patient primary cells Pat.11; assay: as above
Outline: as §1

[7] = tested on: myeloid leukemia patient primary cells Pat.13; assay: as above
Outline: as §1

[8] = tested on: myeloid leukemia patient primary cells Pat.3; assay: as above
Outline: as §1

[9] = tested on: myeloid leukemia patient primary cells Pat.10; assay: as above
Outline: as §1

[10] = tested on: myeloid leukemia patient primary cells Pat.1; assay: as above
Outline: as §1

[11] = tested on: myeloid leukemia patient primary cells Pat.14; assay: as above
Outline: as §1

[12] = tested on: myeloid leukemia patient primary cells Pat.5; assay: as above
Outline: as §1

[13] = tested on: myeloid leukemia patient primary cells Pat.7; assay: as above
Outline: as §1

[14] = tested on: myeloid leukemia patient primary cells Pat.2; assay: as above
Outline: as §1

K-562 = assay: cell viability (% survival relative to DMSO control, bortezomib = 0%); higher = less cytotoxic
Outline: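 Percent survival figures are means of duplicate wells. They were obtained by CellTiter-Glo luminescence after 10 AML and 5 CML cell lines spent 72 h at 37 °C with 5% CO2 in 384-well plates with compounds at 1, 10, 100, 1000 or 10000 nM. Vehicle was set to 100% and a 10 µM positive control to 0%.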

CCC(=O)N1CCN(c2ccc(-n3c(=O)ccc4cnc5ccc(-c6cnc7ccccc7c6)cc5c43)cc2C(F)(F)F)CC1 [Torin1]
cell viability [%], HL-60
Details	0.001 µM	0.01 µM	0.1 µM	1 µM	10 µM
co-treatment: AZD3965 100 nM	105 ± 6.4	100 ± 18	91.3 ± 18	99 ± 2.9	51.4 ± 2.1
co-treatment: DMSO vehicle	97.9 ± 4.5	102.1 ± 0.92	93.4 ± 14	101 ± 3.5	65.4 ± 8.4
co-treatment: GSK2194069 100 nM	106 ± 8	106 ± 1.1	92.1 ± 16	104.4 ± 0.71	72.7 ± 3.2
co-treatment: pictilisib 100 nM	100 ± 6.4	104 ± 1.5	80 ± 22	85.8 ± 5.2	65.5 ± 3.1

cell viability [%]
Details	1 nM	10 nM	100 nM	1000 nM	10000 nM
K-562	108	87	85.9	24.7	11.7
[1]	90.6	91.5	92.3	91.5	89.5
[2]	80.9	57.7	62	27	12.3
[3]	80.6	55.9	20.2	14.2	12.1
[4]	91.6	76	59.8	40.2	12.8
[5]	91.1	66.9	73.1	61.7	53.7
[6]	92.9	90.9	85.8	56.7	39.4
[7]	91.5	77.7	75.2	43	51
[8]	96.1	> 100	93.2	66.8	62.1
[9]	63.9	96.5	30	18.6	9.9
[10]	85.1	60.4	44.2	30.2	21.5
[11]	77.2	82.1	74.3	38.1	54.1
[12]	54.5	13.5	53.9	1.18	0.265
[13]	75.7	74.2	88.2	44.8	37.6
[14]	92.5	94.3	74.2	62.8	64.2

C[C@H](NC(=O)c1sccc1OCc1ccc(Cl)cc1)c1ccccc1
cell viability [%], HL-60
Details	0.001 µM	0.01 µM	0.1 µM	1 µM	10 µM
co-treatment: AZD3965 100 nM	70.8 ± 40	87.5 ± 22	99.14 ± 0.31	103 ± 2.7	92.2 ± 10
co-treatment: DMSO vehicle	99.5 ± 2	98.9 ± 1.4	96.69 ± 0.35	104 ± 5.2	97.6 ± 3.9
co-treatment: GSK2194069 100 nM	83.9 ± 16	89.91 ± 0.16	98.7 ± 8.9	74.5 ± 30	92.5 ± 3.7
co-treatment: pictilisib 100 nM	90.8 ± 4.3	95.7 ± 6.5	94.9 ± 13	95.2 ± 7.4	108 ± 2.9

cell viability [%]
Details	1 nM	10 nM	100 nM	1000 nM	10000 nM
K-562	96.4	93.3	87.6	97.2	62
[1]	90	98.4	91.8	> 100	63.8
[2]	84.8	59.2	79	59.2	1.24
[3]	92.7	95.6	97.7	92.2	81.3
[4]	94.6	93.6	94.1	83.3	39.9
[5]	72.9	85.9	87.7	> 100	61
[6]	93	> 100	> 100	97.6	> 100
[7]	92.9	89	92.3	91.7	43.4
[8]	91.3	83.9	96.3	96.2	1.02
[9]	81.9	67.4	73.5	80.2	< 0
[10]	94.5	95.9	91	> 100	54
[11]	88.5	88	99.3	99.3	1.72
[12]	88.1	68.7	71.7	19.4	4.74
[13]	93.1	85.3	90.3	40.2	< 0
[14]	> 100	95.8	> 100	97.8	64

Oc1ccc(Nc2nc(-c3ccc(Cl)cc3)cs2)cc1 [SKI II]
cell viability [%], HL-60
Details	0.001 µM	0.01 µM	0.1 µM	1 µM	10 µM
co-treatment: AZD3965 100 nM	101.4 ± 0.73	103 ± 1.4	104 ± 1.8	104 ± 0.68	15.7 ± 2.8
co-treatment: DMSO vehicle	102 ± 5.4	105 ± 2.8	97.6 ± 3.2	100 ± 6	22.1 ± 9
co-treatment: GSK2194069 100 nM	99 ± 7.3	94.2 ± 8.9	99.8 ± 8.5	101 ± 1.1	30.7 ± 5.6
co-treatment: pictilisib 100 nM	96.5 ± 2.7	102 ± 1.6	101 ± 4.1	88 ± 2.7	3.95 ± 2.4

cell viability [%]
Details	1 nM	10 nM	100 nM	1000 nM	10000 nM
K-562	99.5	107	107	75.2	36.8
[1]	89.9	92.9	95.8	> 100	53.9
[2]	20.1	79.9	67.9	24.7	4.42
[3]	69.6	93.3	85.9	87.3	33.6
[4]	65.6	94.5	54.5	89.1	25.3
[5]	82.4	80.7	84.5	80	42.6
[6]	89.5	97.2	98.4	92	79.3
[7]	77.6	94.2	89.3	92.9	32.9
[8]	56.2	92.1	89.3	44.4	0.909
[9]	49.5	47.7	> 100	9.05	81.9
[10]	64.1	> 100	> 100	88.9	32.6
[11]	58.3	97.8	69.4	29.1	6.09
[12]	34.3	41.7	45.5	25	17
[13]	79.7	> 100	62.7	11.5	< 0
[14]	95.5	95.9	95.1	94.2	53.1
